Reference: patent US9150539B2, “Crystalline form of a reverse transcriptase inhibitor” (Merck Sharp & Dohme Corp., priority 2012, dated 2015)

Assay: Relative thermodynamic stability of crystalline anhydrous Forms I and II (competitive slurry experiments)
Format: physicochemical
Procedure: Competitive slurry experiments were conducted to determine the relative stability of anhydrous Form I and II.

| Structure (SMILES) | kinetic preference of form (at room temperature) | conversion rate from AHI to AHII (in solution, under general processing conditions) | thermodynamic stability (at room temperature) |
| --- | --- | --- | --- |
| Cn1c(Cn2ccc(C(F)(F)F)c(Oc3cc(Cl)cc(C#N)c3)c2=O)n[nH]c1=O [anhydrous Form I, 3-chloro-5-({1-[(4-methyl-5-oxo-4,5-dihydro-1H-1,2,4-triazol-3-yl)methyl]-2-oxo-4-(trifluoromethyl)-1,2-dihydropyridin-3-yl}oxy)benzonitrile] | kinetically favored | very slow |  |
| Cn1c(Cn2ccc(C(F)(F)F)c(Oc3cc(Cl)cc(C#N)c3)c2=O)n[nH]c1=O [anhydrous Form II, 3-chloro-5-({1-[(4-methyl-5-oxo-4,5-dihydro-1H-1,2,4-triazol-3-yl)methyl]-2-oxo-4-(trifluoromethyl)-1,2-dihydropyridin-3-yl}oxy)benzonitrile] |  |  | more thermodynamically stable |
